{"source": "paper PMC5571287", "about": "(Antimicrobial Agents and Chemotherapy, 2017)", "key": {"RSV A Long [1]": {"tested_on": "RSV A Long", "conditions": "human respiratory syncytial virus"}, "RSVA 1211 [2]": {"tested_on": "RSVA 1211", "experiment": "microbe, parasite or virus in culture", "type": "cell-based", "conditions": "human respiratory syncytial virus, RSVA 1211, clinical"}, "in vitro": {"experiment": "in vitro", "conditions": "African green monkey"}, "RSVA 1211 [3]": {"tested_on": "RSVA 1211", "conditions": "human respiratory syncytial virus"}, "human polymerase β": {"target": "human polymerase β (Homo sapiens, UniProt P06746)", "experiment": "Human polymerase inhibition in vitro (data not shown)", "type": "biochemical", "conditions": "up to 1 μM"}, "RSVA 689 [4]": {"tested_on": "RSVA 689", "experiment": "microbe, parasite or virus in culture", "type": "cell-based", "conditions": "human respiratory syncytial virus, RSVA 689, clinical"}, "[5]": {"target": "minigenome construct comprising the L protein, M2-1, N, and P of RSV A2 (Human respiratory syncytial virus A, UniProt P28887)", "sequence (P28887 whole entry)": "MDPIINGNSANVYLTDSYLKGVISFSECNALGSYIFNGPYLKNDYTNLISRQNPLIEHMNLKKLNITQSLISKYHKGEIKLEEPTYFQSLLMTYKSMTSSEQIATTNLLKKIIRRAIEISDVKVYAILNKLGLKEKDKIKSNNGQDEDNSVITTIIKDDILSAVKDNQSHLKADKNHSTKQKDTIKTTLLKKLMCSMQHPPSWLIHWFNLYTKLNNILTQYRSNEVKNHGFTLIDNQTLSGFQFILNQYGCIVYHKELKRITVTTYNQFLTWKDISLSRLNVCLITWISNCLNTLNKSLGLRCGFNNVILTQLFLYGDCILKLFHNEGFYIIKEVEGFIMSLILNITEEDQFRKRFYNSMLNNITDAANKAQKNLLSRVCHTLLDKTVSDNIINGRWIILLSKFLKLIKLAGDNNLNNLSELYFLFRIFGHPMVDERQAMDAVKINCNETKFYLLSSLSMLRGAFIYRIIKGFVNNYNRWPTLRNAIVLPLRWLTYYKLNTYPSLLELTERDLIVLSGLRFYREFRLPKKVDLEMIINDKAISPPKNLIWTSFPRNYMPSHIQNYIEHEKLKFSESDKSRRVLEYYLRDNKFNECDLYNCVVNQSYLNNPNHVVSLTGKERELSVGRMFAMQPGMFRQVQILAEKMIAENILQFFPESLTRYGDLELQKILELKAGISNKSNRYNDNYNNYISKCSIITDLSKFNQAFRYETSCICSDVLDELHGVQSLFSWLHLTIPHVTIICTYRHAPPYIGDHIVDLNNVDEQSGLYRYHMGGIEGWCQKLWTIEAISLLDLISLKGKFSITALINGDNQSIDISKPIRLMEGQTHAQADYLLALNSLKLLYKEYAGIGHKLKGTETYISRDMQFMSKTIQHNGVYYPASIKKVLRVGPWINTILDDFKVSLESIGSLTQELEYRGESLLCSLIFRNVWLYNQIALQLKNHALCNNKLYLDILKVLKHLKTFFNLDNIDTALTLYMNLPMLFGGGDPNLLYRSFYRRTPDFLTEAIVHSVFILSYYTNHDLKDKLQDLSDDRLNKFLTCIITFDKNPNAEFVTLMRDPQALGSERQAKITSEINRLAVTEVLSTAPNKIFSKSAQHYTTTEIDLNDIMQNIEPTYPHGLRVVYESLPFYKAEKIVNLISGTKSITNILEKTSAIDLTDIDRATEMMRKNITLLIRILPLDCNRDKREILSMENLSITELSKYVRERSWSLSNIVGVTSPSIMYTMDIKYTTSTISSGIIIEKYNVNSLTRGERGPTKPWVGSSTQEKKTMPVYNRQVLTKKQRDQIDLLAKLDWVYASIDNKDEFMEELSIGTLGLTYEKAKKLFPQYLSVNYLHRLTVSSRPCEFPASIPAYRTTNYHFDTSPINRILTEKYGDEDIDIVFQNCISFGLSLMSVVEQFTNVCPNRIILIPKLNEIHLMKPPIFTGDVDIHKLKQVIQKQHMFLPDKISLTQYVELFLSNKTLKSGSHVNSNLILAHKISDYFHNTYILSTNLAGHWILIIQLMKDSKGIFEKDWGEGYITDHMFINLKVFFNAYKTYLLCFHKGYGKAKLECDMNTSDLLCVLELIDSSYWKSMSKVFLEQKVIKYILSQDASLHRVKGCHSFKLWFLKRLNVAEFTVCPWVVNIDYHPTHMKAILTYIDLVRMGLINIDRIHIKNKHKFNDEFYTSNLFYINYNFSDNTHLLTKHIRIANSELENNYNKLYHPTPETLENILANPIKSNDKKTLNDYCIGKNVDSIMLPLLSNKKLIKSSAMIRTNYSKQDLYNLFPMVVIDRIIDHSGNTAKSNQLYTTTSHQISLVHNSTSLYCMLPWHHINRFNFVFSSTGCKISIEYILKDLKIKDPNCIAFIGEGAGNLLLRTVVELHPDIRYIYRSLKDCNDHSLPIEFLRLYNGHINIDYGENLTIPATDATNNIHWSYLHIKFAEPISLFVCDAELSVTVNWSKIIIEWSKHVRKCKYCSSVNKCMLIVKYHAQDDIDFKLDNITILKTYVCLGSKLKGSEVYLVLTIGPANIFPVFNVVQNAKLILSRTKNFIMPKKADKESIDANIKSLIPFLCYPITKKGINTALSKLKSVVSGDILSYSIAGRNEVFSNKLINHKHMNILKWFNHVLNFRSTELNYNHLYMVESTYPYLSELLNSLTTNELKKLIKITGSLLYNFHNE", "sequence (P03421 whole entry, further chain)": "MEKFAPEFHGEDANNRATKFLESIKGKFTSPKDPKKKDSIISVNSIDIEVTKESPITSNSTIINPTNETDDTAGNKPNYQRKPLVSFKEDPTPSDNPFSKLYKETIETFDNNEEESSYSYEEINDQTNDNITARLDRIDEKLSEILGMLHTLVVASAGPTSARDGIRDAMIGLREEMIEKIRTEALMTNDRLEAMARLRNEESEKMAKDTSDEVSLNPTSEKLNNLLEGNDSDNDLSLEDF", "experiment": "cell-based"}, "PIV3 (C243 strain)": {"tested_on": "PIV3 (C243 strain)", "experiment": "organism not typed", "type": "cell-based, parainfluenza virus 3", "conditions": "PIV3, LLC-MK2 7.1"}, "RSVB 1000": {"tested_on": "RSVB 1000", "experiment": "microbe, parasite or virus in culture", "type": "cell-based", "conditions": "human respiratory syncytial virus, RSVB 1000, clinical, 3 parameter curve fit"}, "RSVA 689 [6]": {"tested_on": "RSVA 689", "conditions": "human respiratory syncytial virus"}, "RSV A2 [7]": {"tested_on": "RSV A2", "experiment": "RSV A2 infection of ALI-cultured human airway epithelial cells, plaque assay of apical wash", "type": "cell-based, respiratory syncytial virus", "conditions": "MOI 0.01", "experimental": "On the day of infection (day 0), the apical surface of each insert was washed once with 300 μl of sterile PBS and the inserts were then transferred to new 24-well plates containing 780 μl of fresh MucilAir culture medium (Epithelix Sàrl). […] The virus inoculum was removed with a pipette and inserts were washed twice with 300 μl of sterile PBS. A day 0 sample was harvested by adding 300 μl of sterile PBS to the apical surface of each well for 5 min. The 300-μl sample was then removed and transferred to 0.5-ml tubes containing 100 μl of 50% sucrose dissolved in PBS, and the tubes were stored at -80°C. This harvesting procedure was repeated daily until day 7. PC786 was dosed apically onto MucilAir inserts. […] The dosing regimen was performed daily on day 0 to day 6 following each sample collection. On day 5, the basal medium was removed from every well and replenished with fresh MucilAir culture medium as a necessary maintenance step for ALI culture cells. Virus titer in the apical wash samples was determined by plaque assay. […] Cells were washed twice with PBS before 150 μl of secondary antibody (goat anti-mouse HRP conjugate [Dako Ltd., Ely, UK; P044701-2]), diluted 1:400 in blocking buffer, was added to cells for 1 h at RT, with shaking. […] Each well received 150 μl of development substrate (sigmaFAST […]; Sigma-Aldrich) until plaques were visible. Plaques were counted by eye and confirmed using light microscopy."}, "RSV A Long [8]": {"tested_on": "RSV A Long", "experiment": "CPE assay in HEp-2 cells (resazurin)", "type": "cell-based", "conditions": "human respiratory syncytial virus, laboratory"}, "RSV B 9320": {"tested_on": "RSV B 9320", "experiment": "CPE assay in HEp-2 cells (resazurin)", "type": "cell-based", "conditions": "human respiratory syncytial virus"}, "Rhinovirus 16": {"tested_on": "Rhinovirus 16", "experiment": "microbe, parasite or virus in culture", "type": "cell-based, human rhinovirus", "conditions": "Rhinovirus 16, HeLa"}, "RSV A USU\\v1225": {"tested_on": "RSV A USU\\v1225", "experiment": "CPE 2, neutral red 96-well CPE assay in HEp-2", "type": "cell-based", "conditions": "human respiratory syncytial virus", "experimental": "(§1) For RSV A 2001/3-12, 1998/3-2, and USU⃥v1225, CPE was induced in HEp-2 cells for 7 days and the plates were then stained with neutral red dye for approximately 2 h. The intracellular incorporated dye was extracted in 50:50 Sorensen citrate buffer-ethanol and the absorbance read on a spectrophotometer. The optical density (OD) of test wells was converted to percentage of cell and virus controls. […] The virus inocula were ∼63 50% cell culture infectious doses (CCID50) per well for 2001/3-12, ∼40 CCID50/well for 1998/3-2, and ∼32 CCID50/well for USU\\v1225. This assay was conducted in Utah State University (Logan, UT)."}, "RSV A 1998/3-2": {"tested_on": "RSV A 1998/3-2", "experiment": "CPE 2, neutral red 96-well CPE assay in HEp-2", "type": "cell-based", "conditions": "human respiratory syncytial virus", "experimental": "as §1"}, "RSV A 2001/3-12": {"tested_on": "RSV A 2001/3-12", "experiment": "CPE 2, neutral red 96-well CPE assay in HEp-2", "type": "cell-based", "conditions": "human respiratory syncytial virus", "experimental": "as §1"}, "RSV A2 [9]": {"tested_on": "RSV A2", "experiment": "CPE assay, RSV A2 in HEp-2 cells (resazurin)", "type": "cell-based, respiratory syncytial virus", "conditions": "human respiratory syncytial virus, HEp-2"}, "HEp-2 cells": {"tested_on": "HEp-2 cells", "experiment": "Cell viability in HEp-2 cells (resazurin)", "conditions": "concentrations up to 14 μM"}, "[10]": {"experiment": "Cell viability in HEp-2 cells (resazurin)", "conditions": "human, HEp-2 cells"}, "[11]": {"tested_on": "Wild type RSVA2 (vehicle control virus)", "experiment": "CPE assay, vehicle control (wild type) RSV A2 virus", "conditions": "human respiratory syncytial virus"}, "human polymerase γ": {"target": "human polymerase γ (Homo sapiens, UniProt P54098)", "sequence (P54098 whole entry)": "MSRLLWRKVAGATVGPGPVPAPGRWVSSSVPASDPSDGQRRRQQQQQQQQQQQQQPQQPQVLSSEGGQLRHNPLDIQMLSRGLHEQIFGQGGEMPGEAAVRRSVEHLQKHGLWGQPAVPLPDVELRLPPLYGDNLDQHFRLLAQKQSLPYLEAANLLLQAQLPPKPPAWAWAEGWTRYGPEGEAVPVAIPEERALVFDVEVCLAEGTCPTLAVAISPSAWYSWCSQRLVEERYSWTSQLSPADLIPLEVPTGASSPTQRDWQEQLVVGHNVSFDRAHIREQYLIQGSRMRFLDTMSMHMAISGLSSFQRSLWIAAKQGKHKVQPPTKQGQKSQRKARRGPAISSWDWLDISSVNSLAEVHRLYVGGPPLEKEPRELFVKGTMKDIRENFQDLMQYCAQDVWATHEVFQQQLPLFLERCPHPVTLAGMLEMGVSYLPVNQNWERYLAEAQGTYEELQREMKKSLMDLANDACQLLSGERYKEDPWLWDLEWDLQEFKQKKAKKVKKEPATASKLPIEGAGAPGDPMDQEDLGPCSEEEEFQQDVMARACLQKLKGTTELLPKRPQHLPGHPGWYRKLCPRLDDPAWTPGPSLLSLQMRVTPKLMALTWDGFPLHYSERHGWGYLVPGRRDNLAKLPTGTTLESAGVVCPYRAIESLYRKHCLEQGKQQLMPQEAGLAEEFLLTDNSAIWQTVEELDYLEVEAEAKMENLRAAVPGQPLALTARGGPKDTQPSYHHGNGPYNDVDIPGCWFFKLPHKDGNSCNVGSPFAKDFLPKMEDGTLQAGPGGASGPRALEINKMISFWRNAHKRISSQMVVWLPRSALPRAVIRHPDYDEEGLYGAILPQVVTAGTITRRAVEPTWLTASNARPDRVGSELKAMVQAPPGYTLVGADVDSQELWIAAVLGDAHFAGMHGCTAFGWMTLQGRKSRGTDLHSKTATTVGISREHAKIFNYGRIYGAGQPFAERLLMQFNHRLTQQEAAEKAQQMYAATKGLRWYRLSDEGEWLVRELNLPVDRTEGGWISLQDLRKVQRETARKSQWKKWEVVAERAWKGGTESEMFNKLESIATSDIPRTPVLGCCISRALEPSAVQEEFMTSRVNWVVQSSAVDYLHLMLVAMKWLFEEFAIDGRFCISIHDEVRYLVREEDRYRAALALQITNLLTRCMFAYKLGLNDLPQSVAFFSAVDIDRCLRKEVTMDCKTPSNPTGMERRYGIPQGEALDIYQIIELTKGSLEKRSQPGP", "experiment": "Human polymerase inhibition in vitro (data not shown)", "type": "biochemical", "conditions": "up to 1 μM"}, "[12]": {"conditions": "HEp-2, read-out: RSV titre in supernatant IC50 (0.3 Log PFUe reduction) (converted)"}, "[13]": {"conditions": "HEp-2, read-out: RSV titre in supernatant IC90 (1 Log PFUe reduction) (converted)"}}, "note": "Read-outs that look alike come from different tables or passages of the source."}
{"smiles": "Cc1cnc(N2CC3(CCOCC3)C2)c(C(=O)Nc2ccc(C(=O)N3CCc4cc(C(=O)Nc5c(C)cccc5F)sc4-c4ccccc43)cc2)c1", "note": "[PC786, N-(2-fluoro-6-methylphenyl)-6-(4-(5-methyl-2-(7-oxa-2-azaspiro[3.5]nonan-2-yl)nicotinamido)benzoyl)-5,6-dihydro-4H-benzo[b]thieno[2,3-d]azepine-2-carboxamide]", "values": [{"measurement": "IC50", "setting": "RSV A Long [1]; HEp-2, read-out: PCR IC50 (0.3 Log PFUe reduction) (converted)", "value": 2.65, "unit": "nM"}, {"measurement": "IC90", "setting": "RSV A Long [1]; HEp-2, read-out: PCR IC90 (1 Log PFUe reduction) (converted)", "value": 3.45, "unit": "nM"}, {"measurement": "IC50", "setting": "RSVA 1211 [2]; read-out: CPE IC50", "value": "< 0.09", "unit": "nM"}, {"measurement": "IC90", "setting": "RSVA 1211 [2]; read-out: CPE IC90", "value": 1.96, "unit": "nM"}, {"measurement": "CC50", "setting": "in vitro", "value": "> 14000", "unit": "nM"}, {"measurement": "IC50", "setting": "RSVA 1211 [3]; [12]", "value": "< 0.09", "unit": "nM"}, {"measurement": "IC90", "setting": "RSVA 1211 [3]; [13]", "value": 1.05, "unit": "nM"}, {"measurement": "inhibitory effects on human polymerase β", "setting": "human polymerase β", "value": "no measurable inhibitory effects"}, {"measurement": "IC50", "setting": "RSVA 689 [4]; read-out: CPE IC50", "value": 0.5, "unit": "nM"}, {"measurement": "IC90", "setting": "RSVA 689 [4]; read-out: CPE IC90", "value": 0.6, "unit": "nM"}, {"measurement": "inhibition at 0.14 µM", "setting": "[5]; HEp-2, at 140 nM, read-out: maximum inhibition achieved", "value": 100, "unit": "%"}, {"measurement": "IC90", "setting": "[5]; luciferase, HEp-2, wild-type L protein", "value": 1.54, "unit": "nM"}, {"measurement": "IC50", "setting": "PIV3 (C243 strain)", "value": "> 14000", "unit": "nM"}, {"measurement": "IC90 or IC95", "setting": "PIV3 (C243 strain)", "value": ">14000", "unit": "nM"}, {"measurement": "IC50", "setting": "RSVB 1000; read-out: CPE IC50", "value": 13.4, "unit": "nM"}, {"measurement": "IC90", "setting": "RSVB 1000; read-out: CPE IC90", "value": 342, "unit": "nM"}, {"measurement": "IC50", "setting": "RSVA 689 [6]; [12]", "value": 0.54, "unit": "nM"}, {"measurement": "IC90", "setting": "RSVA 689 [6]; [13]", "value": 1.12, "unit": "nM"}, {"measurement": "viral replication in apical wash (plaque assay)", "setting": "RSV A2 [7]; 5.6 nM apical once daily day 0 to day 6", "value": "did not peak until day 5"}, {"measurement": "viral replication in apical wash (plaque assay)", "setting": "RSV A2 [7]; 28 nM apical once daily day 0 to day 6", "value": "viral replication was not detected until day 4"}, {"measurement": "viral quantity in apical wash (plaque assay)", "setting": "RSV A2 [7]; 140 nM apical once daily day 0 to day 6", "value": "below detectable limits"}, {"measurement": "IC50", "setting": "RSV A Long [8]", "value": 2.46, "unit": "nM"}, {"measurement": "IC90", "setting": "RSV A Long [8]", "value": 3.25, "unit": "nM"}, {"measurement": "IC50", "setting": "RSV B 9320", "value": 29.1, "unit": "nM"}, {"measurement": "IC90", "setting": "RSV B 9320", "value": 64.3, "unit": "nM"}, {"measurement": "IC50", "setting": "Rhinovirus 16; Enterovirus", "value": "> 14000", "unit": "nM"}, {"measurement": "IC90 or IC95", "setting": "Rhinovirus 16", "value": ">14000", "unit": "nM"}, {"measurement": "IC50", "setting": "RSV A USU\\v1225", "value": 1.3, "unit": "nM"}, {"measurement": "IC50", "setting": "RSV A 1998/3-2", "value": 2.5, "unit": "nM"}, {"measurement": "IC50", "setting": "RSV A 2001/3-12", "value": 3.2, "unit": "nM"}, {"measurement": "IC50", "setting": "RSV A2 [9]; RSV A2, laboratory, low-passage isolate study, read-out: CPE assay IC50", "value": 0.96, "unit": "nM"}, {"measurement": "IC90", "setting": "RSV A2 [9]; RSV A2, laboratory, low-passage isolate study, read-out: CPE assay IC90", "value": 1.82, "unit": "nM"}, {"measurement": "IC50", "setting": "RSV A2 [9]; read-out: RSV A2 IC50", "value": "0.5 ± 0.0014", "unit": "nM"}, {"measurement": "IC90", "setting": "RSV A2 [9]; read-out: RSV A2 IC90", "value": "0.63 ± 0.035", "unit": "nM"}, {"measurement": "Cell viability", "setting": "HEp-2 cells", "value": "did not affect cell viability"}, {"measurement": "CC50", "setting": "[10]", "value": "> 14000", "unit": "nM"}, {"measurement": "IC50", "setting": "[11]; read-out: Wild type RSVA2 IC50", "value": 0.027, "unit": "nM"}, {"measurement": "IC90", "setting": "[11]; read-out: Wild type RSVA2 IC90", "value": 0.065, "unit": "nM"}, {"measurement": "inhibitory effects on human polymerase γ", "setting": "human polymerase γ", "value": "no measurable inhibitory effects"}]}
